Data from patent publication US7094413B2, “Combined therapy for treatment of HIV infection” (priority 2002, dated 2006).
Entries after “also recorded” stand apart in the source; their conditions may differ.

Key:
SIVmac251 = experiment: Plasma viral load (real time RT-PCR of SIV RNA) in SIV-infected rhesus macaques; type: in vivo, rhesus macaques (Macaca mulatta)
Text: Fifteen (15) colony bred rhesus macaques (Macaca mulatta) from the California Regional Primate Research Center, Davis, were used in this study. Animals were housed in accordance with The American Association for Accredition of Laboratory Animal Care guidelines. All animals were seronegative for simian retrovirus (SRV-1) and simian T cell leukemia virus type-1 (STLV-1). Rhesus macaques were intravenously (I.V.) infected with 100 animal infectious doses of uncloned pathogenic SIVmac251. This viral inoculum has been previously shown to cause persistent viremia and infection Of multiple tissues in vivo, leading to fatal AIDS-like disease (Mandell et al 1995). The animals were divided into the following groups • 1. Untreated Controls, necropsy at week 10 (n=3) • 2. Untreated Controls, necropsy at week 26 (n=3) • 3 PMPA treatment, necropsy at week 10 (n=3) • 4. PMPA+RDP58 treatment, necropsy at week 10 (n=3) • 5. PMPA treatment, necropsy at week 26 (n=3) • 6. […]
Primers and probes specific to the SIV RNA sequence were designed and used in the real time PCR reaction. […] The progress of the reaction is monitored through the fluorescence released by […] that is proportional to the product being formed. Thus the fluorescence intensity is directly related to the amount of input target RNA. The data was analyzed with Sequence Detector Software (SDS). […]

[1] = system: T cells in gut associated lymphoid tissue (GALT) and blood; experiment: Flow cytometry of T cells from jejunal biopsies (GALT) and peripheral blood of SIV-infected rhesus macaques; type: in vivo, rhesus macaques (Macaca mulatta)
Text: Fifteen (15) colony bred rhesus macaques (Macaca mulatta) from the California Regional Primate Research Center, Davis, were used in this study. Animals were housed in accordance with The American Association for Accredition of Laboratory Animal Care guidelines. All animals were seronegative for simian retrovirus (SRV-1) and simian T cell leukemia virus type-1 (STLV-1). Rhesus macaques were intravenously (I.V.) infected with 100 animal infectious doses of uncloned pathogenic SIVmac251. This viral inoculum has been previously shown to cause persistent viremia and infection Of multiple tissues in vivo, leading to fatal AIDS-like disease (Mandell et al 1995). The animals were divided into the following groups • 1. Untreated Controls, necropsy at week 10 (n=3) • 2. Untreated Controls, necropsy at week 26 (n=3) • 3 PMPA treatment, necropsy at week 10 (n=3) • 4. PMPA+RDP58 treatment, necropsy at week 10 (n=3) • 5. PMPA treatment, necropsy at week 26 (n=3) • 6. PMPA+RDP58 treatment, necropsy at week 26 (n=3)
PMPA treatment was initiated at 6 weeks post-infection and was administered at 30 mg/kg, I.V. RDP58 was administered orally, dissolved in drinking water, at 2 mg/kg, 3×/week.
Jejunal biopsies and peripheral blood samples were obtained from all animals prior to infection and at 2 weeks, 6 weeks, 10 weeks, 16 weeks and 26 weeks post-infection and at necropsy. Jejunal biopsies was obtained using a pediatric gastroscope.
Jejunal pinch biopsy samples were incubated RPMI 1640 (Gibco) and collagenase (Sigma) at 37° C. and rapidly shaken for 45 minutes then subjected to Percoll (Sigma) density gradient centrifugation to enrich for T cells and eliminate tissue debris. Cells were then washed with PBS (Gibco) and allowed to equilibrate over night at 37° C. and 5% CO2 in complete RPMI 1640 (containing 10% fetal calf sera, penicillin and streptomyicin). Cells were stained for three-color flow cytometric analysis with CD3FITC, CD4PE, CD8PE, CD45RA (BD Pharmingen), CD8TC, CD69TC, CD28TC, CD25PE (Caltag). All cells were fixed in 1% paraformaldehyde in PBS and read on a Bectin Dickenson FacScan within 3 hours of staining. Flow data was analyzed using Bectin Dickenson CellQuest softwear.

Molecule	plasma viral load (viral RNA copies/ml plasma) (SIVmac251; therapy started at week 6 post infection, PMPA 30 mg/kg I.V.)	CD3 gated CD4+ T cells after SIV-induced depletion ([1]; GALT and blood, treatment from week 6)	% CD3 gated CD8+ cells ([1]; by week 10)	CD4+CD8+ double positive T cell counts in GALT ([1]; week 12, GALT)	effect of RDP58 on suppression of viral loads by antiretroviral therapy (SIVmac251; RDP58 2 mg/kg orally 3x/week, alone or added to PMPA, 2 mg/kg)	stabilizing CD4+ T-cell population in GALT ([1]; GALT)
C[C@H](Cn1cnc2c(N)ncnc21)OCP(=O)(O)O [PMPA, 9-R-(2-phosphonomethoxypropyl)adenine]	gradual decrease in viral load	reversal	gradual decrease	modest changes		
Arg-nL-nL-nL-Arg-nL-nL-nL-Gly-Tyr [RDP58]					no adverse effect; also recorded: did not interfere with or change the effect of antiretroviral therapy	beneficial effects
